Like-named read-outs stand apart in the source and are kept apart here.
Biological target: Ba/F3 V617F cells (Homo sapiens, UniProt O60674, V617F, cells depend on it)
Experiment: Proliferation assay (Cell Titer-Glo, 72 h) utilizing Ba/F3 V617F cells
Assay type: cell-based, mouse
Outline: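 Ba/F3 V617F cells in RPMI/10% FBS, 1×10^5 cells/mL, exposed in duplicate to 3-fold serial compound dilutions (top 5 mM DMSO stock, diluted 1:250, added as 2× solution in 5% FBS medium) for 72 h at 37 °C. Viability by Cell Titer-Glo luminescence; IC50 reported.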

[1] = Ba/F3 V617F cells, proliferation, level of activity to inhibit JAK2, read-out: IC50 (the source's name)
[2] = Ba/F3 V617F cells, proliferation, level of activity given as class symbol, read-out: IC50 (the source's name)

Chain of Ba/F3 V617F cells (O60674 whole entry V617F): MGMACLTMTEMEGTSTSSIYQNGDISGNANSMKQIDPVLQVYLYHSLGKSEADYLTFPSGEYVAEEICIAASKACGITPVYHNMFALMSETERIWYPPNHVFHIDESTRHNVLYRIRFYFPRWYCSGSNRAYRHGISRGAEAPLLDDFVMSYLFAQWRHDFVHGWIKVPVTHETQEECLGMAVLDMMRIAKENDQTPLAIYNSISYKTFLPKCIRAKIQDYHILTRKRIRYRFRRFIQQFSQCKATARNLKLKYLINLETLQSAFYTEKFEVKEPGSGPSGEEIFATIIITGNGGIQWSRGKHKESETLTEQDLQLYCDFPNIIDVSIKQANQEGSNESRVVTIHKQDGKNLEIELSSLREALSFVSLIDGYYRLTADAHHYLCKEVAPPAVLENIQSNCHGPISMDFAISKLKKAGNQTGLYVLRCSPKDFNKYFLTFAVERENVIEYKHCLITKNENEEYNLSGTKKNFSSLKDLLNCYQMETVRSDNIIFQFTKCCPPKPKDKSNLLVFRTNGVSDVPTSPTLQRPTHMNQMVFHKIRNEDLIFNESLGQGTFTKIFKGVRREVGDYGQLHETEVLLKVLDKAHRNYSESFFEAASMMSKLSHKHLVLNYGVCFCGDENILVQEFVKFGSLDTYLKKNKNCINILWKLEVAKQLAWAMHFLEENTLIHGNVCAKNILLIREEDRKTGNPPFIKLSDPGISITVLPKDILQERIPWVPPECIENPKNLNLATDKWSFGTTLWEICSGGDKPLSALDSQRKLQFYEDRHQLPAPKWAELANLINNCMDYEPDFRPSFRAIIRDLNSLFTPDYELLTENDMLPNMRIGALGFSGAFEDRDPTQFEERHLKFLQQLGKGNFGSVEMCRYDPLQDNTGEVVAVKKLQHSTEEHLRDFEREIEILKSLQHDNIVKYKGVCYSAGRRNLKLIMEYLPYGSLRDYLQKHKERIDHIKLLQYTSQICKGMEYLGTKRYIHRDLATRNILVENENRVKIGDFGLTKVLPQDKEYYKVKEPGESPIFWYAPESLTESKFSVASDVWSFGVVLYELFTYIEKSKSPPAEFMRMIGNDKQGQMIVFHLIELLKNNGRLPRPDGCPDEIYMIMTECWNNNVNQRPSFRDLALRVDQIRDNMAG

GI50 [1] [nM]	Structure (SMILES)	further results
< 1000	CCN1C[C@@H]2C[C@H]1CN2c1ccc(Nc2nccc(-c3ccc(N(C)C)nc3)n2)cc1C [compound 24, 4-(6-(dimethylamino)pyridin-3-yl)-N-(3-methyl-4-((1S,4S)-5-ethyl-2,5-diazabicyclo[2.2.1]heptan-2-yl)phenyl)pyrimidin-2-amine]	–
< 1000	Cc1cc(Nc2nccc(-c3cnc4c(c3)OC(C)(C)C(=O)N4)n2)ccc1N1C[C@@H]2C[C@H]1CN2C [compound 130, 4-(2,2-dimethyl-3-oxo-3,4-dihydro-2H-pyrido[3,2-b][1,4]oxazin-7-yl)-N-(3-methyl-4-((1S,4S)-5-methyl-2,5-diazabicyclo[2.2.1]heptan-2-yl)phenyl)pyrimidin-2-amine]	–
< 1000	Cc1cc(Nc2nccc(-c3ccc(NC(=O)CN4CCOCC4)nc3)n2)ccc1N1C[C@@H]2C[C@H]1CN2C [compound 141, 4-(6-(2-(morpholin-4-yl)acetamido)pyridin-3-yl)-N-(3-methyl-4-((1S,4S)-5-methyl-2,5-diazabicyclo[2.2.1]heptan-2-yl)phenyl)pyrimidin-2-amine]	–
< 1000	CN1C[C@@H]2C[C@H]1CN2c1ccc(Nc2nccc(-c3ccc4c(c3)NC(=O)CO4)n2)cc1F [compound 124, 4-(2H-benzo[b][1,4]oxazin-3(4H)-on-6-yl)-N-(3-fluoro-4-((1S,4S)-5-methyl-2,5-diazabicyclo[2.2.1]heptan-2-yl)phenyl)pyrimidin-2-amine]	–
< 1000	CN1C[C@@H]2C[C@H]1CN2c1ccc(Nc2nccc(-c3ccc(NS(C)(=O)=O)cc3)n2)cc1F [compound 135, 4-(4-(methylsulfonylamino)phenyl)-N-(3-fluoro-4-((1S,4S)-5-methyl-2,5-diazabicyclo[2.2.1]heptan-2-yl)phenyl)pyrimidin-2-amine]	–
–	Cc1cc(Nc2nccc(-c3ccc(NC(=O)CN4CCOCC4)nc3)n2)cnc1N1C[C@@H]2C[C@H]1CN2C [compound 144, 4-(6-(2-(morpholin-4-yl)acetamido)pyridin-3-yl)-N-(5-methyl-6-((1S,4S)-5-methyl-2,5-diazabicyclo[2.2.1]heptan-2-yl)pyridin-3-yl)pyrimidin-2-amine]	GI50 (inhibition of JAK2 activity, proliferation of Ba/F3 V617F cells, read-out: IC50 (the source's name)): 1000 to 10000 nM
< 1000	CCC(=O)N1C[C@@H]2C[C@H]1CN2c1ccc(Nc2nccc(-c3cnc4c(c3)OC(C)(C)C(=O)N4)n2)cc1C [compound 28, 4-(2,2-dimethyl-3-oxo-3,4-dihydro-2H-pyrido[3,2-b][1,4]oxazin-7-yl)-N-(3-methyl-4-((1S,4S)-5-(ethylcarbonyl)-2,5-diazabicyclo[2.2.1]heptan-2-yl)phenyl)pyrimidin-2-amine]	–
< 1000	CS(=O)(=O)N1C[C@@H]2C[C@H]1CN2c1ccc(Nc2nccc(-c3ccc(N4CCOCC4)nc3)n2)cc1C#N [compound 117, 4-(6-(morpholin-4-yl)pyridin-3-yl)-N-(3-cyano-4-((1S,4S)-5-methylsulfonyl-2,5-diazabicyclo[2.2.1]heptan-2-yl)phenyl)pyrimidin-2-amine]	–
< 1000	CN1C[C@@H]2C[C@H]1CN2c1ccc(Nc2nccc(-c3cnc4c(c3)OC(C)(C)C(=O)N4)n2)cc1 [compound 137, 4-(2,2-dimethyl-3-oxo-3,4-dihydro-2H-pyrido[3,2-b][1,4]oxazin-7-yl)-N-(4-((1S,4S)-5-methyl-2,5-diazabicyclo[2.2.1]heptan-2-yl)phenyl)pyrimidin-2-amine]	–
< 1000	Cc1cc(Nc2nccc(-c3cnc4[nH]ccc4c3)n2)ccc1N1C[C@@H]2C[C@H]1CN2CC(F)(F)F [compound 34, 4-(1H-pyrrolo[2,3-b]pyridin-5-yl)-N-(3-methyl-4-((1S,4S)-5-(2,2,2-trifluoroethyl)-2,5-diazabicyclo[2.2.1]heptan-2-yl)phenyl)pyrimidin-2-amine]	–
–	Cc1cc(Nc2nccc(-c3ccc(N4CCOCC4)nc3)n2)ccc1N1C[C@@H]2CC[C@H]1C2 [compound 222, 4-(6-(morpholin-4-yl)pyridin-3-yl)-N-(3-methyl-4-((1S,4R)-2-azabicyclo[2.2.1]heptan-2-yl)phenyl)pyrimidin-2-amine]	GI50 [2]: < 1000 nM
–	Cc1cc(Nc2nccc(-c3ccc(N4C[C@@H](C)O[C@@H](C)C4)nc3)n2)ccc1N1CC2(C)CN(C)CC(C)(C1)C2 [compound 212, 4-(6-((2S,6R)-2,6-dimethylmorpholin-4-yl)pyridin-3-yl)-N-(3-methyl-4-(1,5,7-trimethyl-3,7-diazabicyclo[3.3.1]nonan-3-yl)phenyl)pyrimidin-2-amine]	GI50 [2]: < 1000 nM
1000 to 10000	CCOC(C)c1ccc(-c2ccnc(Nc3ccc(N4C[C@@H]5C[C@H]4CN5C)c(C)c3)n2)cc1 (stereo partly drawn) [compound 181, 4-(4-(1-ethoxyethyl)phenyl)-N-(3-methyl-4-((1S,4S)-5-methyl-2,5-diazabicyclo[2.2.1]heptan-2-yl)phenyl)pyrimidin-2-amine]	–
–	CN1CC2(C)CN(c3ccc(Nc4nccc(-c5cnc6c(c5)OC(C)(C)C(=O)N6)n4)cc3F)CC(C)(C1)C2 [compound 208, 4-(2,2-dimethyl-3-oxo-3,4-dihydro-2H-pyrido[3,2-b][1,4]oxazin-7-yl)-N-(3-fluoro-4-(1,5,7-trimethyl-3,7-diazabicyclo[3.3.1]nonan-3-yl)phenyl)pyrimidin-2-amine]	GI50 [2]: 1000 to 10000 nM
–	Cc1cc(Nc2nccc(-c3ccc4c(c3)OC(C)(C)C(=O)N4)n2)ccc1N1C[C@@H]2C[C@H]1CN2C [compound 240, 4-(2,2-dimethyl-3-oxo-3,4-dihydro-2H-benzo[b][1,4]oxazin-7-yl)-N-(3-methyl-4-((1S,4S)-5-methyl-2,5-diazabicyclo[2.2.1]heptan-2-yl)phenyl)pyrimidin-2-amine]	GI50 [2]: < 1000 nM
< 1000	Cc1cc(Nc2nccc(-c3ccc(N4CCOCC4)nc3)n2)ccc1N1CCN2CCC1C2 (stereo not drawn) [compound 120, 4-(6-(morpholin-4-yl)pyridin-3-yl)-N-(3-methyl-4-(1,4-diazabicyclo[3.2.1]octan-4-yl)phenyl)pyrimidin-2-amine]	–
< 1000	Cc1cc(Nc2nccc(-c3ccc(NCCNS(=O)(=O)C4CC4)nc3)n2)ccc1N1C[C@@H]2C[C@H]1CO2 [compound 100, 4-(6-((2-(cyclopropylsulfonyl)aminoethyl)-amino)pyridin-3-yl)-N-(3-methyl-4-((1S,4S)-5-oxa-2-azabicyclo[2.2.1]heptan-2-yl)phenyl)pyrimidin-2-amine]	–
–	CN1C[C@@H]2C[C@H]1CN2c1ccc(Nc2nccc(-c3ccc4c(ccn4-c4ccncc4)c3)n2)cc1F [compound 233, 4-(1-(pyridin-4-yl)-1H-indol-5-yl)-N-(3-fluoro-4-((1S,4S)-5-methyl-2,5-diazabicyclo[2.2.1]heptan-2-yl)phenyl)pyrimidin-2-amine]	GI50 [2]: < 1000 nM
–	Cc1cc(Nc2nccc(-c3cnc4c(c3)OC(C)(C)C(=O)N4)n2)ccc1N1CC2(C)CN(C)CC(C)(C1)C2 [compound 207, 4-(2,2-dimethyl-3-oxo-3,4-dihydro-2H-pyrido[3,2-b][1,4]oxazin-7-yl)-N-(3-methyl-4-(1,5,7-trimethyl-3,7-diazabicyclo[3.3.1]nonan-3-yl)phenyl)pyrimidin-2-amine]	GI50 [2]: < 1000 nM
1000 to 10000	CN1CC2(C)CN(c3ccc(Nc4nccc(-c5cnc6c(c5)OCCN6)n4)cc3F)CC(C)(C1)C2 [compound 89, 4-(3,4-dihydro-2H-pyrido[3,2-b][1,4]oxazin-7-yl)-N-(3-fluoro-4-(1,5,7-trimethyl-3,7-diazabicyclo[3.3.1]nonan-3-yl)phenyl)pyrimidin-2-amine]	–
1000 to 10000	CCOC(C)c1ccc(-c2ccnc(Nc3ccc(N4C[C@@H]5C[C@H]4CN5C)c(F)c3)n2)cc1 (stereo partly drawn) [compound 182, 4-(4-(1-ethoxyethyl)phenyl)-N-(3-fluoro-4-((1S,4S)-5-methyl-2,5-diazabicyclo[2.2.1]heptan-2-yl)phenyl)pyrimidin-2-amine]	–
< 1000	Cc1cc(Nc2nccc(-c3cnc4c(c3)OC(C)(C)C(=O)N4)n2)ccc1N1CCN2CCC1CC2 [compound 160, 4-(2,2-dimethyl-3-oxo-3,4-dihydro-2H-pyrido[3,2-b][1,4]oxazin-7-yl)-N-(3-methyl-4-(1,4-diazabicyclo[3.2.2]nonan-4-yl)phenyl)pyrimidin-2-amine]	–
< 1000	Cc1cc(Nc2nccc(-c3ccc(N4CCOCC4)nc3)n2)ccc1N1C[C@H]2C[C@@H]1CN2C [compound 72, 4-(6-(morpholin-4-yl)pyridin-3-yl)-N-(3-methyl-4-((1R,4R)-5-methyl-2,5-diazabicyclo[2.2.1]heptan-2-yl)phenyl)pyrimidin-2-amine]	–
< 1000	Cc1cc(Nc2nccc(-c3ccc(C(=O)Nc4ccccn4)cc3)n2)ccc1N1C[C@@H]2C[C@H]1CN2C [compound 134, 4-(4-((pyridin-2-yl)aminocarbonyl)phenyl)-N-(3-methyl-4-((1S,4S)-5-methyl-2,5-diazabicyclo[2.2.1]heptan-2-yl)phenyl)pyrimidin-2-amine]	–
< 1000	Cc1cc(Nc2nccc(-c3ccc(NCc4ccccc4)nc3)n2)ccc1N1C[C@@H]2C[C@H]1CN2C [compound 80, 4-(6-(benzylamino)pyridin-3-yl)-N-(3-methyl-4-((1S,4S)-5-methyl-2,5-diazabicyclo[2.2.1]heptan-2-yl)phenyl)pyrimidin-2-amine]	–
< 1000	Cc1cc(Nc2nccc(-c3ccc4ncn(C)c4c3)n2)ccc1N1CCN2CCC1C2 (stereo not drawn) [compound 122, (1-methylbenzimidazol-6-yl)-N-(3-methyl-4-(1,4-diazabicyclo[3.2.1]octan-4-yl)phenyl)pyrimidin-2-amine]	–
–	Cc1cc(Nc2nccc(-c3ccc(N4C[C@@H]5C[C@H]4CO5)nc3)n2)ccc1N1C[C@@H]2C[C@H]1CN2S(C)(=O)=O [compound 264, 4-(6-((1S,4S)-2-oxa-5-azabicyclo[2.2.1]heptan-5-yl)pyridin-3-yl)-N-(3-methyl-4-((1S,4S)-5-(methylsulfonyl)-2,5-diazabicyclo[2.2.1]heptan-2-yl)phenyl)pyrimidin-2-amine]	GI50 [2]: < 1000 nM

Reference: patent US9624229B2, “Pyrimidine-2-amine compounds and their use as inhibitors of JAK kinases” (Rigel Pharmaceuticals, Inc., priority 2008, dated 2017)
